Laboratory results reported in patent US11332483B2, “Naphthoquinone containing gold carbene complexes and methods of uses thereof” (BOARD OF REGENTS, THE UNIVERSITY OF TEXAS SYSTEM, priority 2017, dated 2022).

Tested on: fetal bovine serum proteins
Experimental: To assess potential drug protein interactions, samples of fetal bovine serum (FBS) were treated with 25 μM 1, 3, and auranofin prior to incubating at 37° C. Aliquots were taken and the free Au (non-protein bound, methanolic extracts) content was analyzed by ICP-MS (FIG. 3B).
A 25 μM solution of each compound in 3 mL warm FBS was made. The solutions were kept at 37° C. Over time, 100 μL aliquots of each solution were taken and precipitated into 400 μL cold methanol. Precipitated aliquots were stored at −80° C. The methanolic suspensions were then centrifuged at 11,000 rcf for 5 min in an Edvotek microcentrifuge. The supernatants were pipetted into new microcentrifuge tubes. Samples were prepared for ICP-MS by adding 200 μL supernatant from each sample to 2 mL 3% Trace Metal Grade HCl. Time points were at addition of compound (T0), 4, 6.25, 9.75, 12, 24, 48, 72, and 100 h.

SMILES: Cc1cc(C)c(-n2c3c([n+](-c4c(C)cc(C)cc4C)[c]2[Au-][c]2n(-c4c(C)cc(C)cc4C)c4c([n+]2-c2c(C)cc(C)cc2C)C(=O)c2ccccc2C4=O)C(=O)c2ccccc2C3=O)c(C)c1.[Cl][Ag-][Cl] [Compound 1, [Bis(1,3-dimesityl-4,5-naphthoquino-imidazol-2-ylidene)-gold(I)] [Silver(I)dichloride]]
- free Au (non-protein bound) content as a function of time: minimal changes in the free Au levels
